Results taken from patent US20230393140A1, “BINDING ASSAYS INVOLVING A PLURALITY OF SYNTHETIC COMPOUNDS, TARGETS, AND COUNTER TARGETS” (SRI International, priority 2020, published 2023).
Like-named read-outs stand apart in the source and are kept apart here. Numbered stars: 1 amine (or outer) side, 2 acyl side, 3 side chain; on linkers, the order of the positions; unused ones are H or OH. Square brackets hold non-standard residues; d marks the D form. Peptide text beside a SMILES is read from it. * marks the point of attachment. 5FAM = O=C1OC2(c3ccc(O)cc3Oc3cc(O)ccc32)c2ccc(C(=O)*)cc21; NHCH2C6H4(4-CH2CONH2) = NC(=O)Cc1ccc(CN*)cc1; X1 = O=C(Cc1ccc(CN[*:1])cc1)[*:2]

Target: T1, IL-6R (Homo sapiens, UniProt P08887)
T1 construct: purchased Creative Biomart IL6R-584H
T1 sequence (P08887 20-355 limits assumed): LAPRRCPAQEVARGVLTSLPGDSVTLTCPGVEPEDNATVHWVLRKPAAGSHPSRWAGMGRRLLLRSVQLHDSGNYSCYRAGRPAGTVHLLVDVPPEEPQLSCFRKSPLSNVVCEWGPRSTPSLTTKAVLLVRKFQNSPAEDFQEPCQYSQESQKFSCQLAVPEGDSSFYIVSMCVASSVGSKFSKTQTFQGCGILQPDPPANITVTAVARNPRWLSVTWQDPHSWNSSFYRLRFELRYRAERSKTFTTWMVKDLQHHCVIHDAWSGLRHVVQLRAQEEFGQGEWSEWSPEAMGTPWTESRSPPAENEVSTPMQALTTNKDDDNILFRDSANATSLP
Test: MST binding affinity of resynthesized NNP hits to IL-6R
Conditions: MST, NNP2 library hit, target SIL-6R, one-site binding model
Protocol: Hit binding affinity to various targets were determined using Microscale Thermophoresis (MST). MST experiments were performed on a Monolith NT.115pico (NanoTemper Technologies GmbH, Munich, Germany). Measurements were performed at room temperature, in triplicate with incubation periods of 15, 30 and 45 minutes. […] Targets were labeled using Nanotemper Monolith 2nd Generation Protein Labeling Kits. RED-MALEIMIDE (Maleimide-647-dye) labeling kit was used for K-Ras and RED-NHS (NHS-647-dye) labeling kit was used for IL-6, IL-6R, TNFα and ASGPR. The buffer for the ASGPR contained 20 mM HEPES pH 7.4, 150 mM NaCl, 10 mM MgCl2, 2 mM CaCl2, 0.05% Pluronic F-127, and 1 mM DTT; for IL-6 contained 20 mM HEPES pH 7.4, 150 mM KCl, 10 mM MgCl2, and 0.1% Pluronic F-127; for the soluble IL-6 receptor 20 mM HEPES pH 7.4, 150 mM NaCl, 10 mM MgCl2, and 0.05% Tween-20; for K-Ras 20 mM HEPES pH 7.4, 150 mM NaCl, 10 mM MgCl2, 0.05% Tween-20 and 1 mM DTT; for TNFα 10 mM HEPES pH 7.4, 150 mM NaCl, 10 mM MgCl2, 0.05% Polysorbate-20. Triplicate data was analyzed using MO.AffinityAnalysis software (NanoTemper Technologies GmbH).

[1] = read-out: KD (nM) [95% conf. int]

CC(C)C[C@H](NC(=O)[C@@H](CCCNC(=N)N)NC(=O)[C@@H](C)NC(=O)Cc1ccc(CNC(=O)[C@H](C)NC(=O)[C@@H](Cc2c[nH]c3ccccc23)NC(=O)[C@@H](CCC(=O)O)NC(=O)Cc2ccc(CNC(=O)[C@H](Cc3ccccc3)NC(=O)[C@@H](CCCCN)NC(=O)[C@@H](CCC(=O)O)NC(=O)Cc3ccc(CNC(=O)[C@H](CC(C)C)NC(=O)[C@@H](CCC(=O)O)NC(=O)[C@@H](CCCCN)NC(=O)Cc4ccc(CNC(=O)[C@H](CC(C)C)NC(=O)[C@H](NC(=O)[C@@H](CC(N)=O)NC(=O)Cc5ccc(CNC(=O)[C@@H](NC(=O)[C@@H](CC(N)=O)NC(=O)[C@H]6CCCN6C(=O)Cc6ccc(CNC(=O)[C@H](Cc7ccccc7)NC(=O)[C@@H](Cc7c[nH]c8ccccc78)NC(=O)[C@@H](CCCNC(=N)N)NC(=O)c7ccc8c(c7)C(=O)OC87c8ccc(O)cc8Oc8cc(O)ccc87)cc6)C(C)C)cc5)[C@H](C)O)cc4)cc3)cc2)cc1)C(=O)NCc1ccc(CC(=O)N[C@H](CCC(=O)O)C(=O)N[C@H](CCCNC(=N)N)C(=O)N[C@H](C(=O)NCc2ccc(CC(=O)N[C@H](Cc3ccccc3)C(=O)N[C@H](CCCCN)C(=O)NCC(=O)NCc3ccc(CC(N)=O)cc3)cc2)C(C)C)cc1 [IL6R-87-1, Fluorescein-(D)Arg-(D)Trp-(L)Phe-PAM-(D)Pro-(D)Asn-(L)Val-PAM-(D)Asn-(D)Thr-(L)Leu-PAM-(D)Lys-(D)Glu-(L)Leu-PAM-(D)Glu-(D)Lys-(L)Phe-PAM-(D)Glu-(D)Trp-(L)Ala-PAM-(D)Ala-(D)Arg- (L)Leu-PAM-(D)Glu-(D)Arg-(L)Val-PAM-(D)Phe-(D)Lys-Gly-PAM] (5FAM-[dR][dW]F[X1][dP][dN]V[X1][dN][dT]L[X1][dK][dE]L[X1][dE][dK]F[X1][dE][dW]A[X1][dA][dR]L[X1][dE][dR]V[X1][dF][dK]G-{NHCH2C6H4(4-CH2CONH2)})
Kd: 1.2 nM

CC(C)C[C@H](NC(=O)[C@@H](CCCNC(=N)N)NC(=O)[C@@H](C)NC(=O)Cc1ccc(CNC(=O)[C@H](CC(C)C)NC(=O)[C@@H](CCCNC(=N)N)NC(=O)[C@@H](CCC(=O)O)NC(=O)Cc2ccc(CNC(=O)[C@H](Cc3ccccc3)NC(=O)[C@@H](CCCCN)NC(=O)[C@@H](CCC(=O)O)NC(=O)Cc3ccc(CNC(=O)[C@H](CC(C)C)NC(=O)[C@@H](CCC(=O)O)NC(=O)[C@@H](CCCCN)NC(=O)Cc4ccc(CNC(=O)[C@H](CC(C)C)NC(=O)[C@H](NC(=O)[C@@H](CC(N)=O)NC(=O)Cc5ccc(CNC(=O)[C@H](Cc6ccccc6)NC(=O)[C@@H](CO)NC(=O)[C@@H](CCC(=O)O)NC(=O)Cc6ccc(CNC(=O)[C@H](CC(C)C)NC(=O)[C@@H](CC(C)C)NC(=O)[C@@H](Cc7ccc(O)cc7)NC(=O)c7ccc8c(c7)C(=O)OC87c8ccc(O)cc8Oc8cc(O)ccc87)cc6)cc5)[C@H](C)O)cc4)cc3)cc2)cc1)C(=O)NCc1ccc(CC(=O)N[C@H](Cc2c[nH]c3ccccc23)C(=O)N[C@H](CCCCN)C(=O)N[C@@H](CC(C)C)C(=O)NCc2ccc(CC(=O)N[C@H](Cc3ccccc3)C(=O)N[C@H](CCCCN)C(=O)NCC(=O)NCc3ccc(CC(N)=O)cc3)cc2)cc1 [IL6R-87-2] (5FAM-[dY][dL]L[X1][dE][dS]F[X1][dN][dT]L[X1][dK][dE]L[X1][dE][dK]F[X1][dE][dR]L[X1][dA][dR]L[X1][dW][dK]L[X1][dF][dK]G-{NHCH2C6H4(4-CH2CONH2)})
Kd [1]: 0.8 nM

CC(C)C[C@H](NC(=O)[C@@H](CCCNC(=N)N)NC(=O)[C@@H](C)NC(=O)Cc1ccc(CNC(=O)[C@H](CC(C)C)NC(=O)[C@@H](CCCNC(=N)N)NC(=O)[C@@H](CCC(=O)O)NC(=O)Cc2ccc(CNC(=O)[C@H](C)NC(=O)[C@@H](CCCCN)NC(=O)[C@@H](Cc3ccc(O)cc3)NC(=O)Cc3ccc(CNC(=O)[C@H](Cc4ccccc4)NC(=O)[C@@H](CC(N)=O)NC(=O)[C@@H](Cc4ccc(O)cc4)NC(=O)Cc4ccc(CNC(=O)[C@H](CC(C)C)NC(=O)[C@H](NC(=O)[C@@H](CC(N)=O)NC(=O)Cc5ccc(CNC(=O)[C@H](Cc6ccccc6)NC(=O)[C@@H](CO)NC(=O)[C@@H](CCC(=O)O)NC(=O)Cc6ccc(CNC(=O)[C@H](Cc7ccccc7)NC(=O)[C@@H](Cc7c[nH]c8ccccc78)NC(=O)[C@@H](CCCNC(=N)N)NC(=O)c7ccc8c(c7)C(=O)OC87c8ccc(O)cc8Oc8cc(O)ccc87)cc6)cc5)[C@H](C)O)cc4)cc3)cc2)cc1)C(=O)NCc1ccc(CC(=O)N[C@H](CCC(=O)O)C(=O)N[C@H](CCCNC(=N)N)C(=O)N[C@H](C(=O)NCc2ccc(CC(=O)N[C@H](Cc3ccccc3)C(=O)N[C@H](CCCCN)C(=O)NCC(=O)NCc3ccc(CC(N)=O)cc3)cc2)C(C)C)cc1 [IL6R-87-3, Fluorescein-(D)Arg-(D)Trp-(L)Phe-PAM-(D)Glu-(D)Ser-(L)Phe-PAM-(D)Asn-(D)Thr-(L)Leu-PAM-(D)Tyr-(D)Asn-(L)Phe-PAM-(D)Tyr-(D)Lys-(L)Ala-PAM-(D)Glu-(D)Arg-(L)Leu-PAM-(D)Ala-(D)Arg- (L)Leu-PAM-(D)Glu-(D)Arg-(L)Val-PAM-(D)Phe-(D)Lys-Gly-PAM] (5FAM-[dR][dW]F[X1][dE][dS]F[X1][dN][dT]L[X1][dY][dN]F[X1][dY][dK]A[X1][dE][dR]L[X1][dA][dR]L[X1][dE][dR]V[X1][dF][dK]G-{NHCH2C6H4(4-CH2CONH2)})
Kd: 19 nM

CC(C)C[C@H](NC(=O)[C@@H](CCCNC(=N)N)NC(=O)[C@@H](C)NC(=O)Cc1ccc(CNC(=O)[C@H](Cc2ccccc2)NC(=O)[C@@H](CCC(=O)O)NC(=O)[C@H]2CCCN2C(=O)Cc2ccc(CNC(=O)[C@@H](NC(=O)[C@@H](CCCNC(=N)N)NC(=O)[C@@H](Cc3c[nH]c4ccccc34)NC(=O)Cc3ccc(CNC(=O)[C@H](CC(C)C)NC(=O)[C@@H](CCC(=O)O)NC(=O)[C@@H](CCCCN)NC(=O)Cc4ccc(CNC(=O)[C@H](Cc5ccccc5)NC(=O)[C@@H](CO)NC(=O)[C@@H](CCCNC(=N)N)NC(=O)Cc5ccc(CNC(=O)[C@H](Cc6ccccc6)NC(=O)[C@@H](CO)NC(=O)[C@@H](CCC(=O)O)NC(=O)Cc6ccc(CNC(=O)[C@H](Cc7ccccc7)NC(=O)[C@H](NC(=O)[C@@H](CC(N)=O)NC(=O)c7ccc8c(c7)C(=O)OC87c8ccc(O)cc8Oc8cc(O)ccc87)C(C)C)cc6)cc5)cc4)cc3)C(C)C)cc2)cc1)C(=O)NCc1ccc(CC(=O)N2CCC[C@@H]2C(=O)N[C@H](CCCNC(=N)N)C(=O)N[C@@H](C)C(=O)NCc2ccc(CC(=O)N[C@H](Cc3ccccc3)C(=O)N[C@H](CCCNC(=N)N)C(=O)NCC(=O)NCc3ccc(CC(N)=O)cc3)cc2)cc1 [IL6R-87-4] (5FAM-[dN][dV]F[X1][dE][dS]F[X1][dR][dS]F[X1][dK][dE]L[X1][dW][dR]V[X1][dP][dE]F[X1][dA][dR]L[X1][dP][dR]A[X1][dF][dR]G-{NHCH2C6H4(4-CH2CONH2)})
Kd [1]: 22 nM
